Laboratory results from the NIST ThermoML archive (doi:10.1021/je049894j).
± gives the expanded uncertainty stated by the source.

Conditions: Liquid

Structure (SMILES): CCCCO [butan-1-ol]
- vapor or sublimation pressure (468.15 K): 833 ± 26 kPa
- vapor or sublimation pressure (483.15 K): 1182 ± 37 kPa
- vapor or sublimation pressure (498.15 K): 1558 ± 48 kPa
- vapor or sublimation pressure (513.15 K): 2027 ± 63 kPa

Structure (SMILES): CCC(C)O (centres undefined) [butan-2-ol]
- vapor or sublimation pressure (468.15 K): 1351 ± 31 kPa
- vapor or sublimation pressure (483.15 K): 1791 ± 39 kPa
- vapor or sublimation pressure (498.15 K): 2329 ± 49 kPa
- vapor or sublimation pressure (513.15 K): 2946 ± 60 kPa

Structure (SMILES): CCCCC [pentane]
- vapor or sublimation pressure (468.15 K): 3286 ± 100 kPa
